According to ChEMBL document CHEMBL1128759, “Inhibition of interleukin-1 converting enzyme by N-acyl-aspartyl aryloxymethyl ketones” (Bioorg Med Chem Lett, 1995):

What was measured:
Assay type in all cases: cell-based
Caspase-1 = target: T1, Caspase-1 (Homo sapiens, UniProt P29466); assay: Inhibition of IL-1 beta converting enzyme (ICE) in human blood monocytes expressed as Ki
T1 sequence (P29466 whole entry): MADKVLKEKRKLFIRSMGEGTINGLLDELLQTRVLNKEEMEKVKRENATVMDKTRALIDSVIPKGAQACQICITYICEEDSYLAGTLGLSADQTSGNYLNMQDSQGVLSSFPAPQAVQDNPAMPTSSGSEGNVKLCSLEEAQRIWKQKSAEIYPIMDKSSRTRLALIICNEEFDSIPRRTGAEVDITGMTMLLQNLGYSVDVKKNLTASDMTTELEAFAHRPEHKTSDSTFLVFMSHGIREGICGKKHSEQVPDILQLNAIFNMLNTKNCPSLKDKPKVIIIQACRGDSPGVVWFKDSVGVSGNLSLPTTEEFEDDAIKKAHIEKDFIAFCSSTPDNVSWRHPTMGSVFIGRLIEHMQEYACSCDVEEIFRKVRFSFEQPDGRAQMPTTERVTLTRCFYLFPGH

Caspase-1 (Homo sapiens) [1] = target: T2, Caspase-1 (Homo sapiens) (UniProt P29466); assay: Inhibition of IL-1 beta converting enzyme (ICE) in human blood monocytes expressed as Kon
T2 sequence (whole entry): T1 sequence (P29466 whole entry)

Caspase-1 (Homo sapiens) [2] = target: T2, Caspase-1 (Homo sapiens); assay: Compound was tested for inhibition of IL-1 beta converting enzyme (ICE) in human blood monocytes expressed as Ki

Structure (SMILES) | Ki (Caspase-1) | k on (Caspase-1 (Homo sapiens) [1]) | k on (Caspase-1 (Homo sapiens) [2])
C=CCOC(=O)NC(CC(=O)O)C(=O)COc1cc2ccccc2cc1C(=O)N(C)C (centres undefined) | > 28 µM |  | 
CC(C)[C@H](NC(=O)OCc1ccccc1)C(=O)N[C@@H](C)C(=O)N[C@@H](CC(=O)O)C(=O)COc1cc2ccccc2cc1C(N)=O | 1.7 µM | 430000 M⁻¹ s⁻¹ | 
C=CCOC(=O)NC(CC(=O)O)C(=O)COc1ccc2ccccc2c1C(N)=O (centres undefined) | > 18 µM |  | 
CC(C)[C@H](NC(=O)OCc1ccccc1)C(=O)N[C@@H](C)C(=O)N[C@@H](CC(=O)O)C(=O)COc1ccccc1 | 4.9 µM | 1.1 M⁻¹ s⁻¹ | 
C=CCOC(=O)NC(CC(=O)O)C(=O)COc1cc2ccccc2cc1C(N)=O (centres undefined) | 0.32 µM | 5600 M⁻¹ s⁻¹ | 
C=CCOC(=O)N[C@@H](CC(=O)O)C(=O)CCc1cc2ccccc2cc1-c1ncc[nH]1 | > 100 µM |  | 
C=CCOC(=O)NC(CC(=O)O)C(=O)COc1ccc(-c2ccccc2)cc1C(N)=O (centres undefined) |  |  | 3400 M⁻¹ s⁻¹
C=CCOC(=O)NC(CC(=O)O)C(=O)COc1c(C(N)=O)ccc2ccccc12 (centres undefined) | > 22 µM |  | 
C=CCOC(=O)NC(CC(=O)O)C(=O)COc1ccc2ccccc2c1 (centres undefined) | 4 µM |  | 
C=CCOC(=O)NC(CC(=O)O)C(=O)COc1ccccc1 (centres undefined) | 2.7 µM |  | 
C=CCOC(=O)NC(CC(=O)O)C(=O)COc1cc2ccccc2cc1C#N (centres undefined) |  | 4500 M⁻¹ s⁻¹ | 
C=CCOC(=O)N[C@@H](CC(=O)O)C(=O)COc1cc2ccccc2cc1-c1ncc[nH]1 | 0.09 µM | 12000 M⁻¹ s⁻¹ | 
C=CCOC(=O)NC(CC(=O)O)C(=O)COc1cc(-c2ccccc2)ccc1C(N)=O (centres undefined) | 2 µM |  | 
C=CCOC(=O)NC(CC(=O)O)C(=O)COc1ccccc1C(N)=O (centres undefined) | 3.8 µM |  | 
C=CCOC(=O)NC(CC(=O)O)C(=O)COc1cc2ccccc2cc1C(=O)Nc1ccccc1 (centres undefined) |  | 4100 M⁻¹ s⁻¹ | 
